Assay results: PMC11960782 (Nanoscale Advances, 2025)
Residues, ends and D or L forms follow the SMILES beside them.

Assays:
[1] = mouse, in vivo

## CCCCCCCCCCCCCCCC(=O)N[C@H](C(=O)N[C@H](C(=O)N[C@H](C(=O)N[C@@H](C)C(=O)N[C@@H](C)C(=O)N[C@@H](C)C(=O)N[C@@H](CCCCN)C(=O)N[C@@H](CCCCN)C(=O)N[C@@H](CCCCN)C(=O)NCC(=O)NCC(=O)NCC(=O)NCC(=O)N[C@@H](CO)C(=O)N[C@@H](CC(C)C)C(=O)N[C@@H](CC(C)C)C(=O)N[C@H](C(=O)N[C@@H](CCC(=O)O)C(=O)N[C@H](C(=O)N[C@@H](CCC(=O)O)C(=O)N[C@H](C(=O)N1CCC[C@H]1C(=O)N[C@H](C(=O)N[C@@H](CCCNC(=N)N)C(=O)N[C@@H](CC(N)=O)C(=O)N[C@@H](CCC(=O)O)C(=O)N[C@@H](Cc1c[nH]c2ccccc12)C(=O)NCC(=O)N[C@@H](CO)C(=O)N[C@@H](CCCNC(=N)N)C(=O)N[C@@H](CO)C(=O)N[C@@H](CC(N)=O)C(=O)NCC(=O)N[C@@H](CO)C(=O)N[C@@H](CO)C(=O)N[C@@H](CC(=O)O)C(=O)O)[C@@H](C)CC)[C@@H](C)O)C(C)C)[C@@H](C)O)C(C)C)C(C)C)C(C)C [PA–M2e] (HELM PEPTIDE1{[CCCCCCCCCCCCCCCC(=O)[*:2]].V.V.V.A.A.A.K.K.K.G.G.G.G.S.L.L.T.E.V.E.T.P.I.R.N.E.W.G.S.R.S.N.G.S.S.D}$$$$V2.0)
DC2.4 cells
  cell viability (metabolic activity, resazurin reduction): did not significantly decrease cell viability
  live–dead cell assay by confocal microscopy: confirmed the biocompatibility
[1]
  weight loss upon immunization: none of the mice experienced weight loss
